The values that follow are results of earlier work, collected in patent publication US20080254098A1, “Neural tube birth defect reduction with folic acid delivery in catamenial hygiene products” (priority 2007, published 2008).

The conditions of data set [1]: Norway; daily folic acid supplements of 0.4 mg or more.
The conditions of data set [2]: red blood cell folate.
For data set [3] the following is noted: basis of the recommended daily intake of 2 mcg to 3 mcg.

Take `Nc1nc2ncc(CNc3ccc(C(=O)N[C@@H](CCC(=O)O)C(=O)O)cc3)nc2c(=O)[nH]1` [folic acid]: the “births with neural tube defects” value (Nova Scotia, Canada, 1998-2000, after fortification began in 1998, 2.58 per 1000 in 1991-1997 before it) was 1.17 per 1,000. Moreover, the “percent of women with one previous neural tube defect pregnancy who had a lower risk of another child with this birth defect” value (Wald 1991, prescription doses of folic acid versus placebo) is recorded as 72%. Further, the “reduction of incidence of neural tube defects by adequate supplementing with folic acid” value (current estimate, depends on local dietary habits and ethnicity) was 50%-70%. Also, the “reduction of risk of cleft lip, with or without cleft palate” value in data set [1] is 40%. Also, the biological half-life result in data set [2] was “approximately 8 weeks”.
As for cyanocobalamin [vitamin B12], in data set [3], the absorption rate is listed as 50%.
